This note sets out measurements from patent US20260028336A1 (Arcus Biosciences, Inc., priority 2022, published 2026).

The structures appear in SMILES notation. Bounds are passed on as bounds.

The target in one experiment is T1, Cbl-b (Homo sapiens, UniProt Q13191).
T1 construct: biotin (biotinylated)
Kind of experiment: Cbl-b probe displacement HTRF binding assay. The conditions noted are these: 0.4 nM biotinylated Cbl-b, 150 nM BODIPY probe. A digest of the protocol:
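Biotinylated Cbl-b was preincubated with compound for 60 min at room temperature in HEPES/NaCl/Triton/TCEP/BSA buffer. BODIPY probe was added for 15 min, followed by streptavidin-terbium, and the HTRF signal was read. Displacement was normalised to DMSO and no-protein controls, and affinity was obtained from a four-parameter dose-response fit.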
(Time-resolved FRET reads energy transfer from a long-lived donor to a nearby acceptor.)

In the next experiment the test system is Jurkat cells. Kind of experiment: IL-2 secretion assay in CD3/CD28-activated Jurkat cells (AlphaLISA). The class given is cell-based. The conditions noted are these: Homo sapiens, CD3/CD28 T Cell Activator, 24 h, IL-2 AlphaLISA. The method in brief:
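Jurkat cells (50,000/well) were preincubated 1 h at 37° C with compound in a 16-point 1:2 series spanning 10 μM to 300 pM final. Cells were then activated with CD3/CD28 T cell activator, and secreted IL-2 was read by AlphaLISA. EC50 came from 4-parameter logistic fits.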
In general terms: Alpha assays give light when donor and acceptor beads are brought close together.

T1 sequence (Q13191 whole entry, species assumed): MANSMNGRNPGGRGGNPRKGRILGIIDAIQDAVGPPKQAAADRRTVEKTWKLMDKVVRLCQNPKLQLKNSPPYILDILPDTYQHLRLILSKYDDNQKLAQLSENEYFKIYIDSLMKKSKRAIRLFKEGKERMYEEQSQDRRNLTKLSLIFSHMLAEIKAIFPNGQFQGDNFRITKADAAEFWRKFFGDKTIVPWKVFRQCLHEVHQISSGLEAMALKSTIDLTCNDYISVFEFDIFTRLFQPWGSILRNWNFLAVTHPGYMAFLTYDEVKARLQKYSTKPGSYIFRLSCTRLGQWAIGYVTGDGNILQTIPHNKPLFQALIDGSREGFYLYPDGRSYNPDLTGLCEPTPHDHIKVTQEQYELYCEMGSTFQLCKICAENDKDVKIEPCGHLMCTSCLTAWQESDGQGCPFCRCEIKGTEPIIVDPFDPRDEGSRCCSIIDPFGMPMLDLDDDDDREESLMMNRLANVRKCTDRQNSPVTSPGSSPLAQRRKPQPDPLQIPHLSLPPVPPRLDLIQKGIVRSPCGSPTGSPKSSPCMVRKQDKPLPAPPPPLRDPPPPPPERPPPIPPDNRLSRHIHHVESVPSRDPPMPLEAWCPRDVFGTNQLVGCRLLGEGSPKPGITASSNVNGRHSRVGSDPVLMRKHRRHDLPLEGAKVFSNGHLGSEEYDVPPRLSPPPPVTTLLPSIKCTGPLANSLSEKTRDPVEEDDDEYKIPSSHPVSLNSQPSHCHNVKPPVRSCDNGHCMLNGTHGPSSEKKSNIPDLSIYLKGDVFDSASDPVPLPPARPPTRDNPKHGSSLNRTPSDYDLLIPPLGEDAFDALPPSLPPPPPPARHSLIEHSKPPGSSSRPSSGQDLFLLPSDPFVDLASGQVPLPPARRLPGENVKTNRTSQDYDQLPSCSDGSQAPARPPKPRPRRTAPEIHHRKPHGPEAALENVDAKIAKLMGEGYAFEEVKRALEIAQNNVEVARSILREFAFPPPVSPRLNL

As usually defined, the IC50 is the concentration at which inhibition is half-maximal. For orientation: EC50 means the concentration that produces a half-maximal response. A high value points to lower potency in that assay. At Cbl-b, `C[C@H]1CCCN(Cc2cc3c(C4CC4)cn(-c4cccc([C@]5(c6nccn6C)C[C@H](F)C5)c4)c(=O)c3[nH]2)C1` [Example 126, 4-cyclopropyl-6-(3-((1r,3S)-3-fluoro-1-(1-methyl-1H-imidazol-2-yl)cyclobutyl)phenyl)-2-(((S)-3-methylpiperidin-1-yl)methyl)-1,6-dihydro-7H-pyrrolo[2,3-c]pyridin-7-one] had an IC50 of less than 100 nM. In the experiment on Jurkat cells, the EC50 was less than 100 nM.

Consider `C[C@H]1CCCN(Cc2cc3c(C4CC4)cn(-c4cccc(C5(c6ncco6)CC(F)(F)C5)c4)c(=O)c3[nH]2)C1` [Example 127, 4-cyclopropyl-6-[3-[3,3-difluoro-1-(1,3-oxazol-2-yl)cyclobutyl]phenyl]-2-[[(3S)-3-methylpiperidin-1-yl]methyl]-1H-pyrrolo[2,3-c]pyridin-7-one], for which the IC50 at Cbl-b was in the range of 100 to 1000 nM. This compound registered an EC50 with Jurkat cells of 100 to 1000 nM.

On to `C[C@H]1CCCN(Cc2cc3c(C4CC4)cn(-c4cccc(C5(c6nccn6C)CC(F)(F)C5)c4)c(=O)c3[nH]2)C1` [Example 128, 4-cyclopropyl-6-[3-[3,3-difluoro-1-(1-methylimidazol-2-yl)cyclobutyl]phenyl]-2-[[(3S)-3-methylpiperidin-1-yl]methyl]-1H-pyrrolo[2,3-c]pyridin-7-one], for which the IC50 at Cbl-b was less than 100 nM. The compound further returned a 50% effective concentration (EC50) in the experiment on Jurkat cells of 100 to 1000 nM.

For `C[C@H]1CCCN(Cc2cc3c(C4CC4)cn(-c4cccc([C@]5(c6nncn6C)C[C@@H](F)C5)c4)c(=O)c3[nH]2)C1` [Example 129, cis-4-cyclopropyl-6-[3-[3-fluoro-1-(4-methyl-1,2,4-triazol-3-yl)cyclobutyl]phenyl]-2-[[(3S)-3-methylpiperidin-1-yl]methyl]-1H-pyrrolo[2,3-c]pyridin-7-one], at Cbl-b, the IC50 was less than 100 nM. Also, the concentration giving a half-maximal response (EC50) in the experiment on Jurkat cells was less than 100 nM.

At Cbl-b, `C[C@H]1CCCN(Cc2cc3c(C4CC4)cn(-c4cccc([C@]5(c6nncn6C)C[C@H](F)C5)c4)c(=O)c3[nH]2)C1` [Example 130, trans-4-cyclopropyl-6-[3-[3-fluoro-1-(4-methyl-1,2,4-triazol-3-yl)cyclobutyl]phenyl]-2-[[(3S)-3-methylpiperidin-1-yl]methyl]-1H-pyrrolo[2,3-c]pyridin-7-one] yielded an IC50 of less than 100 nM. The EC50 in the experiment with Jurkat cells was less than 100 nM.

With `Cn1nccc1-c1c[nH]c2c(=O)n(-c3cccc([C@]4(c5nncn5C)C[C@@H](C)C4)c3)cc(C3CC3)c12` [Example 132, 4-Cyclopropyl-3-(1-methyl-1H-pyrazol-5-yl)-6-{3-[(1R,3S)-3-methyl-1-(4-methyl-4H-1,2,4-triazol-3-yl)cyclobutyl]phenyl}-1H,6H,7H-pyrrolo[2,3-c]pyridin-7-one], the IC50 at Cbl-b was less than 100 nM. The EC50 with Jurkat cells lay in the range of 1000 to 5000 nM.

At Cbl-b, `Cn1nncc1-c1c[nH]c2c(=O)n(-c3cccc([C@]4(c5nncn5C)C[C@@H](C)C4)c3)cc(C3CC3)c12` [Example 133, 4-Cyclopropyl-3-(1-methyl-1H-1,2,3-triazol-5-yl)-6-{3-[(1R,3S)-3-methyl-1-(4-methyl-4H-1,2,4-triazol-3-yl)cyclobutyl]phenyl}-1H,6H,7H-pyrrolo[2,3-c]pyridin-7-one] yielded a 50% inhibitory concentration (IC50) of less than 100 nM. The compound further came in with an EC50 in the experiment with Jurkat cells greater than 5000 nM.

On Cbl-b, `Cn1cnnc1C1(c2cccc(-n3cc(C(F)(F)F)c4c(C#N)c[nH]c4c3=O)c2)CC2(CC2)C1` [Example 137, 6-{3-[5-(4-Methyl-4H-1,2,4-triazol-3-yl)spiro[2.3]hexan-5-yl]phenyl}-7-oxo-4-(trifluoromethyl)-1H,6H,7H-pyrrolo[2,3-c]pyridine-3-carbonitrile] registered an IC50 of less than 100 nM. In the experiment on Jurkat cells, this compound registered an EC50 of 1000 to 5000 nM.

As for `Cn1cnnc1[C@]1(c2cccc(-n3cc(C(F)(F)F)c4cn[nH]c4c3=O)c2)C[C@H](C)C1` [Example 140, 6-{3-[(1R,3S)-3-Methyl-1-(4-methyl-4H-1,2,4-triazol-3-yl)cyclobutyl]phenyl}-4-(trifluoromethyl)-1H,6H,7H-pyrazolo[3,4-c]pyridin-7-one], the IC50 on Cbl-b was less than 100 nM. For the same compound, the EC50 with Jurkat cells lay in the range of 100 to 1000 nM.

For the compound `Cn1cnnc1[C@]1(c2cccc(-n3cc(CO)c4cn[nH]c4c3=O)c2)C[C@H](C)C1` [Example 142, 4-(Hydroxymethyl)-6-{3-[(1R,3S)-3-methyl-1-(4-methyl-4H-1,2,4-triazol-3-yl)cyclobutyl]phenyl}-1H,6H,7H-pyrazolo[3,4-c]pyridin-7-one], the IC50 at Cbl-b lay in the range of 1000 to 5000 nM. Besides, the EC50 in the experiment with Jurkat cells was greater than 5000 nM.

`C[C@H]1CCCN(Cc2cc3c(C4CC4)cn(-c4cccc(C5(c6nncn6C6CC6)CC6(CC6)C5)c4)c(=O)c3[nH]2)C1` [Example 144, 4-cyclopropyl-6-[3-[5-(4-cyclopropyl-1,2,4-triazol-3-yl)spiro[2.3]hexan-5-yl]phenyl]-2-[[(3S)-3-methylpiperidin-1-yl]methyl]-1H-pyrrolo[2,3-c]pyridin-7-one] gave an IC50 at Cbl-b of less than 100 nM. The same compound gave a concentration giving a half-maximal response (EC50) with Jurkat cells of 100 to 1000 nM.

Compound `CC(C)n1cnnc1C1(c2cccc(-n3cc(C4CC4)c4cc(CN5CCC[C@H](C)C5)[nH]c4c3=O)c2)CC2(CC2)C1` [Example 145, 4-Cyclopropyl-2-[[(3S)-3-methylpiperidin-1-yl]methyl]-6-[3-[5-(4-propan-2-yl-1,2,4-triazol-3-yl)spiro[2.3]hexan-5-yl]phenyl]-1H-pyrrolo[2,3-c]pyridin-7-one] returned a half-inhibitory concentration (IC50) on Cbl-b of less than 100 nM. The EC50 in the experiment with Jurkat cells is 1000 to 5000 nM.

The compound `C[C@H]1CCCN(Cc2cc3c(C4CC4)cn(-c4cccc(C5(c6nncn6CC(F)F)CC6(CC6)C5)c4)c(=O)c3[nH]2)C1` [Example 146, 4-Cyclopropyl-6-[3-[5-[4-(2,2-difluoroethyl)-1,2,4-triazol-3-yl]spiro[2.3]hexan-5-yl]phenyl]-2-[[(3S)-3-methylpiperidin-1-yl]methyl]-1H-pyrrolo[2,3-c]pyridin-7-one] had an IC50 on Cbl-b of less than 100 nM. In the experiment on Jurkat cells, this compound returned an EC50 of 100 to 1000 nM.

The compound `C[C@H]1CCCN(Cc2cc3c(C4CC4)cn(-c4cccc(C5(c6nncn6CC(F)(F)F)CC6(CC6)C5)c4)c(=O)c3[nH]2)C1` [Example 147, 4-Cyclopropyl-2-[[(3S)-3-methylpiperidin-1-yl]methyl]-6-[3-[5-[4-(2,2,2-trifluoroethyl)-1,2,4-triazol-3-yl]spiro[2.3]hexan-5-yl]phenyl]-1H-pyrrolo[2,3-c]pyridin-7-one] showed a half-maximal inhibitory concentration (IC50) on Cbl-b of less than 100 nM. In addition, the EC50 in the experiment on Jurkat cells was 1000 to 5000 nM.

`C[C@H]1CCCN(Cc2cc3c(C4CC4)cn(-c4cccc([C@]5(c6nncn6C(F)F)C[C@H](F)C5)c4)c(=O)c3[nH]2)C1` [Example 148, 2—{[(S)-3-methyl-1-piperidyl]methyl}-4-cyclopropyl-6-(m-{1-[4-(difluoromethyl)-4H-1,2,4-triazol-3-yl]-3-fluorocyclobutyl}phenyl)-1,6-dihydro-1,6-diaza-7-indenone] returned an IC50 on Cbl-b of less than 100 nM. The same compound showed an EC50 in the experiment on Jurkat cells of less than 100 nM.

For `C[C@H]1CCCN(Cc2cc3ncn(-c4cccc([C@]5(c6nncn6C(F)F)C[C@H](F)C5)c4)c(=O)c3[nH]2)C1` [Example 149, 2—{[(S)-3-methyl-1-piperidyl]methyl}-6-(m-{(1r,3S)-1-[4-(difluoromethyl)-4H-1,2,4-triazol-3-yl]-3-fluorocyclobutyl}phenyl)-1,6-dihydro-1,4,6-triaza-7-indenone], the IC50 on Cbl-b is less than 100 nM. This compound returned an EC50 with Jurkat cells of less than 100 nM.

On to `C[C@H]1CCCN(Cc2cc3c(C4CC4)cn(-c4cccc(C5(c6nncn6C(F)F)CC6(CC6)C5)c4)c(=O)c3[nH]2)C1` [Example 150, 4-cyclopropyl-6-[3-[5-[4-(difluoromethyl)-1,2,4-triazol-3-yl]spiro[2.3]hexan-5-yl]phenyl]-2-[[(3S)-3-methylpiperidin-1-yl]methyl]-1H-pyrrolo[2,3-c]pyridin-7-one], for which the IC50 on Cbl-b was less than 100 nM. Besides, in the experiment with Jurkat cells, the EC50 is less than 100 nM.

`C[C@H]1CCCN(Cc2cc3c(C4CC4)cn(-c4cccc([C@]5(c6nncn6C(F)F)C[C@H](OC(F)F)C5)c4)c(=O)c3[nH]2)C1` [Example 151, 2—{[(S)-3-methyl-1-piperidyl]methyl}-4-cyclopropyl-6-(m-{(1r,3S)-3-difluoromethoxy-1-[4-(difluoromethyl)-4H-1,2,4-triazol-3-yl]cyclobutyl}phenyl)-1,6-dihydro-1,6-diaza-7-indenone]: the IC50 at Cbl-b was less than 100 nM. Besides, the EC50 in the experiment on Jurkat cells was less than 100 nM.

As for `O=c1c2[nH]c(CNCC3(O)CCC3)cc2c(C2CC2)cn1-c1cccc([C@]2(c3nncn3C(F)F)C[C@H](OC(F)F)C2)c1` [Example 152, 4-cyclopropyl-2-({[(1-hydroxycyclobutyl)methyl]amino}methyl)-6-(m-{(1r,3r)-3-difluoromethoxy-1-[4-(difluoromethyl)-4H-1,2,4-triazol-3-yl]cyclobutyl}phenyl)-1,6-dihydro-1,6-diaza-7-indenone], the half-inhibitory concentration (IC50) at Cbl-b was less than 100 nM. Moreover, the concentration giving a half-maximal response (EC50) with Jurkat cells lay within 1000 to 5000 nM.

On Cbl-b, `C[C@H]1CCCN(Cc2cc3c(C4CC4)cn(-c4cccc([C@H](c5nncn5C(F)F)C5CCC5)c4)c(=O)c3[nH]2)C1` [Example 154, 6-(m-{(R)-cyclobutyl[4-(difluoromethyl)-4H-1,2,4-triazol-3-yl]methyl}phenyl)-2-{[(S)-3-methyl-1-piperidyl]methyl}-4-cyclopropyl-1,6-dihydro-1,6-diaza-7-indenone] showed an IC50 of less than 100 nM. The EC50 in the experiment with Jurkat cells lay within 100 to 1000 nM.

As for `C[C@H]1CCCN(Cc2cc3c(C4CC4)cn(-c4cccc(C(O)(c5nncn5C)C5CCC5)c4)c(=O)c3[nH]2)C1` (stereo partly drawn) [Example 155, 6-[3-[cyclobutyl-hydroxy-(4-methyl-1,2,4-triazol-3-yl)methyl]phenyl]-4-cyclopropyl-2-[[(3S)-3-methylpiperidin-1-yl]methyl]-1H-pyrrolo[2,3-c]pyridin-7-one], the IC50 at Cbl-b is less than 100 nM. The same compound registered an EC50 in the experiment on Jurkat cells of 100 to 1000 nM.
